Test results from patent US20250352539A1, “COMBINATION THERAPY FOR TREATING CANCER” (AstraZeneca AB, priority 2022, published 2025).
Where “and” joins values, the source holds several entries; their conditions need not be identical. Equal entries are not always repeated. Where two headings read alike, the source gives them in different places.

Key:
Type in all cases: cell-based
[1] = test system: T98G; assay: 7 days treatment combination assay in glioblastoma cell lines (Hoeschst positive nuclei count); conditions: Homo sapiens, 168 h, Adult GBM
Experimental: (§1) The assay was carried out in the following glioblastoma cell lines: • U87 • U87 R132H • T98G • SJ-G2 ctrl • SJ-G2 IDH using AZD6738 and AZD9574
(§2) The cells were seeded the day before drug treatment in 150 μl per well of 96-well plate. For SJ-G2 cells, the plates were coated with poly-Lysine solution for 15 minutes, washed twice with sterile water and dried for 1 hour.
(§3) The seeding numbers were (cells per well): U87-500; T98G-500; SJ-G2 ctrl-1000; SJ-G2 IDH.
(§4) The compounds were added via a drug dispenser according to the following scheme:
(§5) after 7 Days: • (a) for SJ-G2, 75 μl Cell Titer Glow 2.0 solution (Promega) was added and incubated for 15 minutes at 37° C. The cells were then read using a plate reader. • (b) for U87 and T98G, 75 μl of 37% formaldehyde was added and fixed for 20 minutes at room temperature. This was then washed twice with PBS, followed by Hoeschst staining for 1 hour at room temperature (Hoeschst 1:10000 in PBS). This was then washed twice in PBS and the plates sealed. The plates were then imaged on Cell Insight with 10× magnification at the 25 position. Hoeschst positive nuclei were identified as objects, and cell survival was analysed by counting objects (Hoeschst positive nuclei) with the corresponding settings for U87 or T98G.
(§6) An analysis of drug synergy was then carried out to yield a HSA score

[2] = test system: U87 IDHm; assay: as above; conditions: 168 h, Adult GBM
Experimental: as §1, §2, §3, §4, §5, §6

[3] = test system: U87 IDH WT; assay: as above; conditions: 168 h, Adult GBM
Experimental: as §1, §2, §3, §4, §5, §6

[4] = test system: BxPC-3; assay: 144-hour CellTiter-Glo 2.0 proliferation assay; conditions: monotherapy, read-out: mono GI50
Experimental: (§7) Combination profiling was carried out in a panel of cancer cell lines utilising Horizon Discovery's High Throughput Screening platform.
(§8) Cell lines that have been preserved in liquid nitrogen are thawed and expanded in growth media (see Table 1). Once cells have reached expected doubling times, screening begins. Cells are seeded in 25 μl of growth media in black 384-well tissue culture treated plates (seeding density as noted in Table 11).
(§9) Cells are equilibrated in assay plates via centrifugation and placed at 37° C. 5% CO2 for twenty-four hours before treatment.
(§10) Compounds are transferred to assay plates using and Echo acoustic liquid handling system. 25 nl of each compound was added at the appropriate concentration for all combination dose points. Therefore, final assay volume would be […]. Assay plates are incubated with compound for 6 days and are then analysed using CellTiter-Glo 2.0. All data points are collected via automated processes and are subject to quality control and analysed.
(§11) Growth Inhibition (GI) is reported as a measure of cell growth. The GI percentages are calculated by applying the following test and equation: […]
(§12) where T is the signal measure for a test article, V is the untreated/vehicle-treated control measure, and Vo is the untreated/vehicle control measure at time zero (also colloquially referred as T0 plates). This formula is derived from the Growth Inhibition calculation used in the National Cancer Institute's NCI-60 high throughput screen. For the purposes of this report, all data analysis was performed in Growth Inhibition (except where noted).

[5] = test system: AGS; assay: 144-hour CellTiter-Glo 2.0 proliferation assay; conditions: Homo sapiens; AGS gastric; monotherapy; read-out: mono GI50
Experimental: as §7, §8, §9, §10, §11, §12

[6] = test system: CFPAC-1; assay: 144-hour CellTiter-Glo 2.0 proliferation assay; conditions: Homo sapiens; CFPAC-1 pancreatic; monotherapy; read-out: mono GI50
Experimental: as §7, §8, §9, §10, §11, §12

[7] = test system: TOV-21G; assay: 144-hour CellTiter-Glo 2.0 proliferation assay; conditions: Homo sapiens, TOV21G; TOV-21G ovarian; monotherapy; read-out: mono GI50
Experimental: as §7, §8, §9, §10, §11, §12

[8] = test system: SK-OV-3; assay: 144-hour CellTiter-Glo 2.0 proliferation assay; conditions: Homo sapiens; SK-OV-3 ovarian; monotherapy; read-out: mono GI50
Experimental: as §7, §8, §9, §10, §11, §12

[9] = test system: SW620; assay: 144-hour CellTiter-Glo 2.0 proliferation assay; conditions: Homo sapiens, SW-620; SW620 colorectal; monotherapy; read-out: mono GI50
Experimental: as §7, §8, §9, §10, §11, §12

[10] = test system: LMSU; assay: 144-hour CellTiter-Glo 2.0 proliferation assay; conditions: LMSU gastric; monotherapy; read-out: mono GI50
Experimental: as §7, §8, §9, §10, §11, §12

[11] = test system: Caov-3; assay: 144-hour CellTiter-Glo 2.0 proliferation assay; conditions: Homo sapiens; Caov-3 ovarian; monotherapy; read-out: mono GI50
Experimental: as §7, §8, §9, §10, §11, §12

[12] = test system: GCIY; assay: 144-hour CellTiter-Glo 2.0 proliferation assay; conditions: Homo sapiens; GCIY gastric; monotherapy; read-out: mono GI50
Experimental: as §7, §8, §9, §10, §11, §12

[13] = test system: HCT-116; assay: 144-hour CellTiter-Glo 2.0 proliferation assay; conditions: Homo sapiens; HCT-116 colorectal; monotherapy; read-out: mono GI50
Experimental: as §7, §8, §9, §10, §11, §12

[14] = test system: Gp2D; assay: 144-hour CellTiter-Glo 2.0 proliferation assay; conditions: Gp2D colorectal; monotherapy; read-out: mono GI50
Experimental: as §7, §8, §9, §10, §11, §12

[15] = test system: COV362; assay: 144-hour CellTiter-Glo 2.0 proliferation assay; conditions: COV362 ovarian; monotherapy; read-out: mono GI50
Experimental: as §7, §8, §9, §10, §11, §12

[16] = test system: HT-115; assay: 144-hour CellTiter-Glo 2.0 proliferation assay; conditions: HT115; HT-115 colorectal; monotherapy; read-out: mono GI50
Experimental: as §7, §8, §9, §10, §11, §12

[17] = test system: OVSAHO; assay: 144-hour CellTiter-Glo 2.0 proliferation assay; conditions: Homo sapiens; OVSAHO ovarian; monotherapy; read-out: mono GI50
Experimental: as §7, §8, §9, §10, §11, §12

[18] = test system: LS-513; assay: 144-hour CellTiter-Glo 2.0 proliferation assay; conditions: Homo sapiens; LS-513 colorectal; monotherapy; read-out: mono GI50
Experimental: as §7, §8, §9, §10, §11, §12

[19] = test system: KP-3; assay: 144-hour CellTiter-Glo 2.0 proliferation assay; conditions: KP-3 pancreatic; monotherapy; read-out: mono GI50
Experimental: as §7, §8, §9, §10, §11, §12

[20] = test system: LoVo; assay: 144-hour CellTiter-Glo 2.0 proliferation assay; conditions: Homo sapiens; LoVo colorectal; monotherapy; read-out: mono GI50
Experimental: as §7, §8, §9, §10, §11, §12

[21] = test system: SW837; assay: 144-hour CellTiter-Glo 2.0 proliferation assay; conditions: Homo sapiens; SW837 colorectal; monotherapy; read-out: mono GI50
Experimental: as §7, §8, §9, §10, §11, §12

[22] = test system: MKN74; assay: 144-hour CellTiter-Glo 2.0 proliferation assay; conditions: Homo sapiens, MKN-74; MKN74 gastric; monotherapy; read-out: mono GI50
Experimental: as §7, §8, §9, §10, §11, §12

[23] = test system: RKO; assay: 144-hour CellTiter-Glo 2.0 proliferation assay; conditions: Homo sapiens; RKO colorectal; monotherapy; read-out: mono GI50
Experimental: as §7, §8, §9, §10, §11, §12

[24] = test system: SNU-668; assay: 144-hour CellTiter-Glo 2.0 proliferation assay; conditions: SNU668; SNU-668 gastric; monotherapy; read-out: mono GI50
Experimental: as §7, §8, §9, §10, §11, §12

`C[C@@H]1COCCN1c1cc(C2([S@](C)(=N)=O)CC2)nc(-c2ccnc3[nH]ccc23)n1` [AZD6738, 4-{4-[(3R)-3-Methylmorpholin-4-yl]-6-[1-((R)—S-methylsulfonimidoyl)cyclopropyl]pyrimidin-2-yl}-1H-pyrrolo[2,3-b]-pyridine] was tested, and the IC50 [1] was 213 nM, the IC50 [2] was 766 nM and the IC50 [3] was 649 nM. The GI50 ([4]; BxPC-3 pancreatic) was 1090 nM, the GI50 ([4]; Homo sapiens, BXPC-3, BxPC-3 pancreatic) was 1080 nM and the GI50 [5] was 1210 nM. It also gave a GI50 [6] of 757 nM, a GI50 [7] of 374 nM and a GI50 [8] of 1280 nM. For the same molecule, the GI50 [9] was 853 nM, the GI50 [10] was 1710 nM and the GI50 [11] was 197 nM. For the same molecule, the GI50 [12] was 179 nM, the GI50 [13] was 687 nM and the GI50 [14] was 501 nM. The GI50 [15] was 1060 nM, the GI50 [16] was 1610 nM and the GI50 [17] was 581 nM. The GI50 [18] was 645 nM, the GI50 [19] was 1280 nM and 1900 nM and the GI50 [20] was 401 nM. It also gave a GI50 [21] of 924 nM, a GI50 [22] of 741 nM and a GI50 [23] of 1020 nM. The GI50 [24] was 291 nM.
